Columns and labels:
[1] = biological target: cytochrome bc1 complex (ubiquinol:cytochrome c oxidoreductase; respiratory complex III) (Homo sapiens, UniProt P00156); format: biochemical
[2] = biological target: T1, cytochrome bc1 complex (ubiquinol:cytochrome c oxidoreductase; respiratory complex III) (Plasmodium falciparum, UniProt Q02768); format: biochemical
T1 sequence (Q02768 1-376): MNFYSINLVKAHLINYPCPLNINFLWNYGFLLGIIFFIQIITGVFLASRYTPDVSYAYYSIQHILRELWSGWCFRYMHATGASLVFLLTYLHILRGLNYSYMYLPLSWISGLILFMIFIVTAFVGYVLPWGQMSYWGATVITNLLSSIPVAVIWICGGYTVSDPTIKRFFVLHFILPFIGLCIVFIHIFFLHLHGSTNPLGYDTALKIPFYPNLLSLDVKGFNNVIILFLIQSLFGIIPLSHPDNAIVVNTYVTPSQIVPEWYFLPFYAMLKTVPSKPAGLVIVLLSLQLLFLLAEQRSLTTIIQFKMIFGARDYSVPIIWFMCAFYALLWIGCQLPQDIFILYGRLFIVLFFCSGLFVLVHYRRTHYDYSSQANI

Sequence of cytochrome bc1 complex (ubiquinol:cytochrome c oxidoreductase; respiratory complex III) (Homo sapiens, UniProt P00156) (P00156 whole entry, one chain of several): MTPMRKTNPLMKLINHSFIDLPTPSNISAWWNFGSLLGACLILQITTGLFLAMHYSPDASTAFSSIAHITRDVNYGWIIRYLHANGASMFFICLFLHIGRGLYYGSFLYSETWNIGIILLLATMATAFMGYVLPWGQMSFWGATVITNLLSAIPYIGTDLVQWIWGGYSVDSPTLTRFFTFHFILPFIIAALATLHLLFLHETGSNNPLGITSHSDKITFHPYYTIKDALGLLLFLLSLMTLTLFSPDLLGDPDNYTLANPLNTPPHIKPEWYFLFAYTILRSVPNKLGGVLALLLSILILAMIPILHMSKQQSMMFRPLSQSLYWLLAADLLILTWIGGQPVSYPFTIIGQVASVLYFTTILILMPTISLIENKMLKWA

IC50 [1] [nM]	IC50 [2] [nM]	Structure (SMILES)
327 ± 30	–	O=C1C(O)=C([C@H]2CC[C@H](c3ccc(Cl)cc3)CC2)C(=O)c2ccccc21 [Atovaquone]
–	2 ± 0.5	CCCCCCCCCCOc1cc2c(O)c(C(=O)OCC)cnc2cc1OCC [Decoquinate]
